These results are taken from ChEMBL document CHEMBL1201862, “PubChem BioAssay data set” (2004).

Among the test systems are A549; ACHN; CAKI-1; CCRF-CEM; COLO 205; EKVX; HCC 2998; HL-60; HOP-62; K562; MOLT-4; NCI-H226; NCI-H460; NCI-H522; OVCAR-3; OVCAR-4; SK-MEL-2; SR; UACC-62; UO-31.
What all share (assay): DTP human tumour cell line panel, 48 h

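Where inhibition never reached the appropriate level, the endpoint shown equals the highest concentration tested. Otherwise, values were interpolated linearly from a five-concentration, 48-hour dose response in 96-well plates. GI50 marks 50% less growth.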 Activity calls are given as the source filed them. Rule as the data show it: active = GI50 up to about 1.1 µM and inactive = higher.

In the case of `COc1ccc(-c2c(C3=NCCN3)nnn2-c2ccccc2)cc1`, the GI50 was > 100 µM (inactive) in the assay with A549; > 100 µM (inactive) in the assay on ACHN; > 100 µM (inactive) in the assay on CAKI-1; > 100 µM (inactive) in the assay on CCRF-CEM; 98.9 µM (inactive) in the assay on COLO 205; > 100 µM (inactive) in the assay with EKVX. In addition, the GI50 in the assay with HCC 2998 is > 100 µM (inactive); with HL-60, 67.3 µM (inactive); in the assay with HOP-62, > 100 µM (inactive); in the assay with K562, > 100 µM (inactive); in the assay on MOLT-4 it was > 100 µM (inactive); with NCI-H226, > 100 µM (inactive). Moreover, the GI50 with NCI-H460 was > 100 µM (inactive); in the assay on NCI-H522, > 100 µM (inactive); in the assay on OVCAR-3, > 100 µM (inactive); in the assay on OVCAR-4, > 100 µM (inactive); with SK-MEL-2, > 100 µM (inactive); with SR, 89.9 µM (inactive). Further, the GI50 in the assay with UACC-62 and with UO-31 was > 100 µM (inactive) throughout.
With `O=c1c2cc(S(=O)(=O)Nc3ccccc3Cl)ccc2ncn1NS(=O)(=O)c1ccc(Br)cc1`, the GI50 in the assay on A549, in the assay with ACHN, in the assay with CAKI-1, in the assay on CCRF-CEM, in the assay with COLO 205 and in the assay on EKVX was > 37.5 µM (inactive) each time. Further, the GI50 in the assay with HCC 2998 is > 37.5 µM (inactive); in the assay on HL-60, > 37.5 µM (inactive); with HOP-62, > 37.5 µM (inactive); with K562 it was 17.8 µM (inactive); in the assay on MOLT-4 it was > 37.5 µM (inactive); with NCI-H226, > 37.5 µM (inactive). Besides, the GI50 with NCI-H460, in the assay on NCI-H522, in the assay on OVCAR-3, in the assay on OVCAR-4, with SK-MEL-2 and with SR was > 37.5 µM (inactive) in each case. In addition, the GI50 in the assay on UACC-62 and in the assay with UO-31 was > 37.5 µM (inactive) in each case.
As for `Cc1cc2c(c(O)c1-c1c(C)cc(O)c3c1C(=O)C=CC3=O)C(=O)C=CC2=O`, the GI50 in the assay on A549 was 17.7 µM (inactive); in the assay with ACHN, 0.388 µM (active); in the assay on CAKI-1 it was 0.631 µM (active); in the assay on CCRF-CEM it was < 0.01 µM (active); in the assay with COLO 205 it was 0.279 µM (active); in the assay on EKVX, 1.59 µM (inactive). Also, the GI50 with HCC 2998 is 3.13 µM (inactive); in the assay with HL-60, < 0.01 µM (active); in the assay on HOP-62, 20.3 µM (inactive); in the assay with K562 it was 0.0337 µM (active); with MOLT-4 it was 0.0224 µM (active); with NCI-H226, 20.2 µM (inactive). Further, the GI50 with NCI-H460 was 6.43 µM (inactive); in the assay with NCI-H522 it was 0.136 µM (active); in the assay on OVCAR-3 it was 2.08 µM (inactive); in the assay with OVCAR-4, 3 µM (inactive); in the assay on SK-MEL-2, 10 µM (inactive); with SR, 0.043 µM (active). Besides, the GI50 in the assay with UACC-62 is 2.13 µM (inactive); with UO-31, 1.63 µM (inactive).
Regarding `O=c1[nH]nc(Cc2ccc(Cl)cc2)n1O`, the GI50 with A549, in the assay with ACHN, with CAKI-1, in the assay with CCRF-CEM, in the assay on COLO 205 and with EKVX was > 100 µM (inactive) in each case. Besides, the GI50 with HCC 2998, in the assay on HL-60, in the assay with HOP-62, in the assay with K562, in the assay on MOLT-4 and in the assay with NCI-H226 was > 100 µM (inactive) each time. In addition, the GI50 with NCI-H460, in the assay on NCI-H522, in the assay with OVCAR-3, with OVCAR-4, with SK-MEL-2 and in the assay on SR was > 100 µM (inactive) in each case. The GI50 with UACC-62 and in the assay on UO-31 was > 100 µM (inactive) throughout.
Turning to `CC(C)(CO)CNc1nc(N)nc(Cl)c1C=O`, the GI50 was 71.1 µM (inactive) in the assay with A549; 48.8 µM (inactive) in the assay on ACHN; 11.9 µM (inactive) with CAKI-1; 20.6 µM (inactive) with CCRF-CEM; 25.5 µM (inactive) with COLO 205; 45.9 µM (inactive) with EKVX. Moreover, the GI50 in the assay with HCC 2998 was 4.51 µM (inactive); in the assay on HL-60, 3.9 µM (inactive); in the assay on HOP-62 it was 23.2 µM (inactive); with K562, 5.19 µM (inactive); with MOLT-4, 19.8 µM (inactive); in the assay with NCI-H226, 50.8 µM (inactive). In addition, the GI50 was 36.4 µM (inactive) with NCI-H460; 7.67 µM (inactive) in the assay on NCI-H522; 25.6 µM (inactive) in the assay on OVCAR-3; 36.1 µM (inactive) in the assay with OVCAR-4; 16.8 µM (inactive) in the assay on SK-MEL-2; 17.5 µM (inactive) in the assay with SR. In addition, the GI50 in the assay with UACC-62 is 12.5 µM (inactive); with UO-31, 62.1 µM (inactive).
Take `CCCCCCC(=O)CC(=O)C(=O)Nc1ccccc1C`: the GI50 was > 100 µM (inactive) in the assay on A549; > 100 µM (inactive) with ACHN; > 100 µM (inactive) in the assay on CAKI-1; > 100 µM (inactive) in the assay on CCRF-CEM; > 57.1 µM (inactive) in the assay on COLO 205; > 100 µM (inactive) with EKVX. The GI50 in the assay on HCC 2998, with HL-60, in the assay on HOP-62, in the assay with K562, in the assay with MOLT-4 and with NCI-H226 was > 100 µM (inactive) each time. Moreover, the GI50 with NCI-H460 was > 51.1 µM (inactive); in the assay on NCI-H522, > 68.5 µM (inactive); in the assay on OVCAR-3 it was > 100 µM (inactive); with OVCAR-4 it was > 100 µM (inactive); in the assay on SK-MEL-2, > 100 µM (inactive); in the assay with SR, > 100 µM (inactive). The GI50 in the assay on UACC-62 and in the assay with UO-31 was > 100 µM (inactive) throughout.
Turning to `Cc1ccc(S[C@@H](C)[C@@](O)(C(N)=O)c2ccccc2)cc1`, the GI50 with A549 is 42.1 µM (inactive); in the assay with ACHN, 68.5 µM (inactive); in the assay on CAKI-1, 16.6 µM (inactive); in the assay on CCRF-CEM it was 7.67 µM (inactive); in the assay with COLO 205 it was 34.4 µM (inactive); in the assay with EKVX, 13.9 µM (inactive). The GI50 was > 100 µM (inactive) with HCC 2998; 37.3 µM (inactive) in the assay on HL-60; 23.6 µM (inactive) in the assay with HOP-62; 15 µM (inactive) with K562; 12.4 µM (inactive) in the assay on MOLT-4; 64.4 µM (inactive) in the assay on NCI-H226. The GI50 was 85.1 µM (inactive) with NCI-H460; 16.7 µM (inactive) in the assay on NCI-H522; > 100 µM (inactive) with OVCAR-3; 21 µM (inactive) with OVCAR-4; 39.4 µM (inactive) with SK-MEL-2; > 10 µM (inactive) in the assay with SR. The GI50 in the assay on UACC-62 was 40.3 µM (inactive); in the assay with UO-31, 15.2 µM (inactive).
Regarding `CC(=O)c1c(SCCN2CCOCC2)n(-c2ccccc2)c(=S)n(-c2ccccc2)c1=O`, the GI50 with A549 is 35.2 µM (inactive); with ACHN, 14.8 µM (inactive); in the assay on CAKI-1, 24.3 µM (inactive); in the assay on CCRF-CEM, 10.8 µM (inactive); in the assay on COLO 205 it was 21.5 µM (inactive); in the assay with EKVX it was 48.2 µM (inactive). Also, the GI50 was 14.3 µM (inactive) with HCC 2998; 28.5 µM (inactive) in the assay with HL-60; 26.2 µM (inactive) in the assay with HOP-62; 14.1 µM (inactive) in the assay on K562; 16 µM (inactive) in the assay with MOLT-4; > 53.1 µM (inactive) in the assay with NCI-H226. Also, the GI50 was 24.4 µM (inactive) in the assay with NCI-H460; 21.8 µM (inactive) in the assay on NCI-H522; 14.8 µM (inactive) in the assay with OVCAR-3; > 46.2 µM (inactive) in the assay with OVCAR-4; 20.2 µM (inactive) with SK-MEL-2; 28.3 µM (inactive) with SR. Also, the results for the GI50 in the assay with UACC-62 and with UO-31 were 15.5 µM (inactive) and 14.1 µM (inactive), respectively.
Regarding `O=[N+]([O-])c1ccc(-n2nnc(C3=NCCN3)c2-c2ccc(Cl)cc2)cc1`, the GI50 in the assay on A549 was > 100 µM (inactive); in the assay on ACHN, > 100 µM (inactive); in the assay on CAKI-1 it was > 100 µM (inactive); in the assay on CCRF-CEM, > 100 µM (inactive); in the assay with COLO 205 it was 51.6 µM (inactive); in the assay on EKVX, > 100 µM (inactive). The GI50 was > 100 µM (inactive) in the assay on HCC 2998; > 100 µM (inactive) in the assay on HL-60; > 100 µM (inactive) in the assay on HOP-62; 83.8 µM (inactive) in the assay with K562; 65.3 µM (inactive) in the assay with MOLT-4; > 100 µM (inactive) with NCI-H226. Also, the GI50 in the assay with NCI-H460 was 91.4 µM (inactive); with NCI-H522, > 100 µM (inactive); with OVCAR-3 it was > 100 µM (inactive); with OVCAR-4 it was > 100 µM (inactive); in the assay on SK-MEL-2, > 100 µM (inactive); with SR, 27.2 µM (inactive). Moreover, the GI50 in the assay on UACC-62 is > 100 µM (inactive); with UO-31 it was 83.2 µM (inactive).
With `Cc1nc(Nc2ccc(Cl)cc2)sc1C(=O)NNC(=O)C(=O)NN`, the GI50 with A549 is 21 µM (inactive); with ACHN, 26.4 µM (inactive); in the assay with CAKI-1, 23.3 µM (inactive); with CCRF-CEM, 22.2 µM (inactive); with COLO 205 it was 20.3 µM (inactive); in the assay with EKVX, 10.4 µM (inactive). The GI50 is 20 µM (inactive) in the assay with HCC 2998; 17.4 µM (inactive) in the assay with HL-60; 21.5 µM (inactive) with HOP-62; 25.1 µM (inactive) in the assay on K562; 19.5 µM (inactive) in the assay with MOLT-4; 20.3 µM (inactive) in the assay on NCI-H226. The GI50 in the assay on NCI-H460 was 19.7 µM (inactive); in the assay on NCI-H522, 17.2 µM (inactive); in the assay on OVCAR-3 it was 21.5 µM (inactive); in the assay on OVCAR-4 it was 18.1 µM (inactive); in the assay on SK-MEL-2, 17.6 µM (inactive); in the assay with SR it was 27.5 µM (inactive). Also, the GI50 was 15.3 µM (inactive) with UACC-62 and 16.6 µM (inactive) in the assay on UO-31.

By GI50 is commonly meant the concentration at which growth is held to half of that of the control.
